Reference: PMC6128713 (Saudi Pharmaceutical Journal : SPJ, 2018)
Read-outs that look alike come from different tables or passages of the source.

What was measured:
[1] = assay type: physicochemical
[2] = system: glutamate-induced 45Ca2+ uptake into synaptosomes of rat brain cortex; assay: Effect on glutamate-induced 45Ca2+ uptake into synaptosomes of rat brain cortex; assay type: biochemical, Wistar rats; conditions: for Percentage 45Ca2+ of Control (Control – 100%): 200 μM glutamate, 5 min, 37 °C

mole fraction solubility (x) ([1]; 1-octanol, 293.15 K) | A, parameter of the correlation equation lnx=A-B/T ([1]; 1-octanol, 293.15–313.15 K) | B, parameter of the correlation equation lnx=A-B/T ([1]; 1-octanol, 293.15–313.15 K) | mole fraction solubility (x) ([1]; 1-octanol, 298.15 K) | ΔGsol0, standard molar dissolution Gibbs energy ([1]; 1-octanol, 298.15 K) | ΔHsol0, standard molar dissolution enthalpy ([1]; 1-octanol, 298.15 K) | ΔSsol0, standard molar dissolution entropy ([1]; 1-octanol, 298.15 K) | mole fraction solubility (x) ([1]; 1-octanol, 303.15 K) | mole fraction solubility (x) ([1]; 1-octanol, 308.15 K) | mole fraction solubility (x) ([1]; 1-octanol, 313.15 K) | mole fraction solubility (x) ([1]; Buffer pH 7.4, 293.15 K) | A, parameter of the correlation equation lnx=A-B/T ([1]; Buffer pH 7.4, 293.15–313.15 K) | B, parameter of the correlation equation lnx=A-B/T ([1]; Buffer pH 7.4, 293.15–313.15 K) | mole fraction solubility (x) ([1]; Buffer pH 7.4, 298.15 K) | ΔGsol0, standard molar dissolution Gibbs energy ([1]; Buffer pH 7.4, 298.15 K) | ΔHsol0, standard molar dissolution enthalpy ([1]; Buffer pH 7.4, 298.15 K) | ΔSsol0, standard molar dissolution entropy ([1]; Buffer pH 7.4, 298.15 K) | mole fraction solubility (x) ([1]; Buffer pH 7.4, 303.15 K) | mole fraction solubility (x) ([1]; Buffer pH 7.4, 308.15 K) | mole fraction solubility (x) ([1]; Buffer pH 7.4, 313.15 K) | Structure (SMILES) | also measured
2.16 x · 10^4 | 5.83 ± 0.11 | 4179 ± 45 | 2.74 x · 10^4 | 20.3 kJ/mol | 34.7 kJ/mol | 69.9 J/mol⋅K | 3.48 x · 10^4 | 4.28 x · 10^4 | 5.40 x · 10^4 | 1.69 x · 10^6 | −7.76 ± 0.04 | 1649 ± 12 | 1.86 x · 10^6 | 32.7 kJ/mol | 13.7 kJ/mol | -63.73 J/mol⋅K | 2.04 x · 10^6 | 2.23 x · 10^6 | 2.42 x · 10^6 | CN1CCc2c(c3ccccc3n2CCc2n[nH]c(=S)n2C)C1 [Compound I, 4-Methyl-5-[2-(2-methyl-1,2,3,4-tetrahydropyrido[4,3-b]indol-5-yl)ethyl]-2,4-dihydro[1,2,4]triazole-3-thione] | mole fraction solubility (x) ([1]; Hexane, 293.15 K): 7.96 x · 10^6; A, parameter of the correlation equation lnx=A-B/T ([1]; Hexane, 293.15–313.15 K): −1.25 ± 0.18; B, parameter of the correlation equation lnx=A-B/T ([1]; Hexane, 293.15–313.15 K): 3073 ± 39; mole fraction solubility (x) ([1]; Hexane, 298.15 K): 9.41 x · 10^6; ΔGsol0, standard molar dissolution Gibbs energy ([1]; Hexane, 298.15 K): 28.6 kJ/mol; ΔHsol0, standard molar dissolution enthalpy ([1]; Hexane, 298.15 K): 25.6 kJ/mol; ΔSsol0, standard molar dissolution entropy ([1]; Hexane, 298.15 K): -6.7 J/mol⋅K; mole fraction solubility (x) ([1]; Hexane, 303.15 K): 11.41 x · 10^6; mole fraction solubility (x) ([1]; Hexane, 308.15 K): 13.26 x · 10^6; mole fraction solubility (x) ([1]; Hexane, 313.15 K): 15.50 x · 10^6; increase of solubility in hexane over buffer solution ([1]; standard temperature): 5 times; Percentage 45Ca2+ of Control (Control – 100%) ([2]; compound 0.1 μM): 90.5 ± 5.1%; Percentage 45Ca2+ of Control (Control – 100%) ([2]; compound 0.5 μM): 94.8 ± 3.0%; Percentage 45Ca2+ of Control (Control – 100%) ([2]; compound 1 μM): 94.5 ± 11.8%; Percentage 45Ca2+ of Control (Control – 100%) ([2]; compound 5 μM): 80.0 ± 3.0%; Percentage 45Ca2+ of Control (Control – 100%) ([2]; compound 10 μM): 69.9 ± 4.4%; Percentage 45Ca2+ of Control (Control – 100%) ([2]; compound 50 μM): 90.0 ± 6.1%; Percentage 45Ca2+ of Control (Control – 100%) ([2]; compound 100 μM): 104.2 ± 12.8%; effect on glutamate-induced calcium ion uptake, in words ([2]; concentration of 0.1–1 μM): did not affect; effect on glutamate-induced calcium ion uptake, in words ([2]; concentrations of 5–50 μM): inhibited calcium ion uptake
0.89 x · 10^4 | 3.95 ± 0.23 | 3889 ± 69 | 1.13 x · 10^4 | 22.5 kJ/mol | 32.3 kJ/mol | 32.9 J/mol⋅K | 1.39 x · 10^4 | 1.68 x · 10^4 | 2.11 x · 10^4 | 1.64 x · 10^6 | −2.90 ± 0.22 | 3054 ± 67 | 1.96 x · 10^6 | 32.6 kJ/mol | 25.4 kJ/mol | -24.2 J/mol⋅K | 2.27 x · 10^6 | 2.70 x · 10^6 | 3.21 x · 10^6 | Cc1ccc2c(c1)c1c(n2CCc2n[nH]c(=S)n2C)CCN(C)C1 [Compound II, 5-[2-(2,8-Dimethyl-1,2,3,4-tetrahydropyrido[4,3-b]indol-5-yl)ethyl]-4-methyl-2,4-dihydro [1,2,4] triazole-3-thione] | mole fraction solubility (x) ([1]; Hexane, 293.15 K): 1.42 x · 10^5; A, parameter of the correlation equation lnx=A-B/T ([1]; Hexane, 293.15–313.15 K): −1.39 ± 0.17; B, parameter of the correlation equation lnx=A-B/T ([1]; Hexane, 293.15–313.15 K): 2989 ± 49; mole fraction solubility (x) ([1]; Hexane, 298.15 K): 1.70 x · 10^5; ΔGsol0, standard molar dissolution Gibbs energy ([1]; Hexane, 298.15 K): 27.2 kJ/mol; ΔHsol0, standard molar dissolution enthalpy ([1]; Hexane, 298.15 K): 24.9 kJ/mol; ΔSsol0, standard molar dissolution entropy ([1]; Hexane, 298.15 K): -7.7 J/mol⋅K; mole fraction solubility (x) ([1]; Hexane, 303.15 K): 2.02 x · 10^5; mole fraction solubility (x) ([1]; Hexane, 308.15 K): 2.35 x · 10^5; mole fraction solubility (x) ([1]; Hexane, 313.15 K): 2.72 x · 10^5; Percentage 45Ca2+ of Control (Control – 100%) ([2]; compound 0.01 μM): 84.7 ± 1.2%; Percentage 45Ca2+ of Control (Control – 100%) ([2]; compound 0.1 μM): 85.5 ± 3.9%; Percentage 45Ca2+ of Control (Control – 100%) ([2]; compound 0.5 μM): 102.6 ± 3.6%; Percentage 45Ca2+ of Control (Control – 100%) ([2]; compound 1 μM): 93.6 ± 3.6%; Percentage 45Ca2+ of Control (Control – 100%) ([2]; compound 5 μM): 113.1 ± 7.6%; Percentage 45Ca2+ of Control (Control – 100%) ([2]; compound 10 μM): 109.7 ± 7.5%; Percentage 45Ca2+ of Control (Control – 100%) ([2]; compound 50 μM): 118.6 ± 2.7%; Percentage 45Ca2+ of Control (Control – 100%) ([2]; compound 100 μM): 127.1 ± 17.1%; inhibition of glutamate-induced uptake of calcium ions ([2]; concentration of 0.01–0.1 μM): ~15%; overall inhibiting activity on calcium ion uptake, in words ([2]; whole concentration range 0.01–100 μM): potentiates the uptake at high concentrations
